From US6469010B1, “Medicament for the alleviation or treatment of symptom derived from the ischemic disease and compound useful thereof” (Suntory Limited, priority 1995, dated 2002)

Tests used:
DBA/2N mice = experiment: Audiogenic seizure suppressing action; type: in vivo; conditions: Mus musculus, ip, 20 min; compound 10 mg/kg, i.p.; audio stimulus after 20 minutes; suppression of average seizure score; read-out: Antiseizure action (suppression rate %)
Procedure: Audiogenic Seizure Suppressing Action
The audiogenic seizure suppressing action of the compounds was evaluated by the method of Sarro et al. [G. B. De Sarro et al.; Br. J. Pharmacol., 93, 247 (1988)]. That is, DBA/2N mice (male, 3 weeks) were administered with the compound dissolved in 10% 2-hydroxypropyl-β-cyclodextrin intraperitoneally. After 20 minutes, a supersonic washer was used to apply audio stimulus of at least 90 dB for one minute. The wild running (WR), clonic seizures (clonus), tonic seizures (tonus), and respiratory arrest (RA) were evaluated. The seizure suppressing action was evaluated from the rate or suppression of the average value of the seizure score found from 0=no response, 1=WR, 2=clonus, 3=tonus, and 4=RA.

Na+ channel = experiment: Veratridine-induced sodium channel activity inhibiting action (membrane potential of synaptosomes, Rhodamine 6G); type: biochemical, Wistar rats; conditions: 0.1 μM of compound; rat brain synaptosomes, veratridine-induced depolarization
Procedure: Veratridine-induced Sodium Channel Activity Inhibiting Action
The membrane potential of the synaptosomes prepared from the brain membrane of Wistar rats (male, 10 to 12 weeks old) was measured by the method of Aiuchi et al. [T. Aiuchi et al: Biochimi. Biophys. Acta.

| Compound | inhibition in vivo at 10 mg/kg (DBA/2N mice) | Antiveratridine action (inhibiting rate %) (Na+ channel) |
| --- | --- | --- |
| C(=C\c1ccccc1)/CN1CCN(c2ccccc2Oc2ccccc2)CC1 [Compound 42, (E)-1-(2-phenoxyphenyl)-4-(3-phenyl-2-propenyl)piperazine] | 60% | – |
| Fc1ccc(OCCCCN2CCC(c3ccc(Oc4ccccc4)cc3)CC2)cc1 [Compound 28, 1-[4-(4-fluorophenyl)-oxybutyl]-4-(4-phenoxyphenyl)piperidine] | 56.9% | 38% |
| Fc1ccc(Cc2ccc(N3CCN(CC4CC4c4ccccc4)CC3)cc2)cc1 (stereo not drawn) [Compound 55, (E)-1-[4-(4-fluorophenyl)-methylphenyl]-4-[trans-(2-phenyl)cyclopropylmethyl]-piperazine] | 62% | – |
| O=C1c2ccccc2CC1N1CCC(c2ccc(Oc3ccccc3)cc2)CC1 (stereo not shown) [Compound 71, 1-(1-oxoindan-2-yl)-4-(4-phenoxy)phenylpiperidine] | 32% | – |
| OC(CN1CCC(c2ccc(Oc3ccccc3)cc2)CC1)c1ccccc1 (stereo not shown) [Compound 77, 1-(2-hydroxy-2-phenyl)-ethyl-4-(4-phenoxyphenyl)piperidine] | 85.7% | 31.1% |
| Fc1ccc(Cc2ccc(C3=CCN(C/C=C/c4ccccc4)CC3)cc2)cc1 [Compound 31, (E)-4-[4-(4-fluorophenyl)-methylphenyl]-1-(3-phenyl-2-propenyl)-1,2,3,6-tetrahydropyridine] | 48% | – |
| OC(COc1ccccc1)CN1CCC(c2ccc(Cc3ccc(F)cc3)cc2)CC1 (stereo not shown) [Compound 81, 4-[4-(4-fluorophenyl)methylphenyl]-1-(2-hydroxy-3-phenoxy)propylpiperidine] | 61% | 24.1% |
| COc1ccc(CN2CCN(c3ccc(Cc4ccc(F)cc4)cc3)CC2)c(OC)c1OC [Compound 56, 1-[4-(4-fluorophenyl)-methylphenyl]-4-[(2,3,4-trimethoxyphenyl)methyl]piperazine] | 50% | – |
| O=C(CN1CCC(c2ccc(Cc3ccc(F)cc3)cc2)CC1)c1ccccc1 [Compound 63, 4-[4-(4-fluorophenyl)methylphenyl]-1-(2-phenyl-2-oxo)ethylpiperidine] | 76% | 31.1% |
| C1=C(c2ccc(Oc3ccccc3)cc2)CCN(C/C=C/c2ccccc2)C1 [Compound 18, (E)-4-(4-phenoxyphenyl)-1-(3-phenyl-2-propenyl)-1,2,3,6-tetrahydropyridine] | 27.9% | 16% |
| COc1ccc(/C=C/CN2CCN(c3ccc(Cc4ccc(F)cc4)cc3)CC2)c(OC)c1OC [Compound 48, (E)-1-[4-(4-fluorophenyl)-methylphenyl]-1-[3-(2,3,4-trimethoxyphenyl)-2-propenyl]-piperazine] | 53.6% | 20.5% |
| Fc1ccc(/C=C/CN2CCC(c3ccc(Oc4ccccc4)cc3)CC2)cc1 [Compound 25, (E)-1-[3-(4-fluorophenyl)-2-propenyl]-4-(4-phenoxyphenyl)piperidine] | 72% | – |
| COc1ccc(CN2CCC(c3ccc(Oc4ccccc4)cc3)CC2)c(OC)c1OC [Compound 29, 4-(4-phenoxyphenyl)-1-[(2,3,4-trimethoxyphenyl)methyl]piperidine] | 66.2% | 9.9% |
| Fc1ccc(Cc2ccc(C3CCN(CC4(c5ccccc5)CC4)CC3)cc2)cc1 [Compound 62, 4-[4-(4-fluorophenyl)-methylphenyl]-1-(1-phenyl-1-cyclopropane)methyl-piperidine] | 44% | 23.9% |
| Fc1ccc(OCCCCN2CCN(c3ccc(Oc4ccccc4)cc3)CC2)cc1 [Compound 41, 4-[4-(4-fluorophenyl)-oxybutyl]-1-(4-phenoxyphenyl)piperazine] | 42.7% | 20.8% |
| O=C(CN1CCC(c2ccc(Oc3ccccc3)cc2)CC1)c1ccccc1 [Compound 64, 4-(4-phenoxyphenyl)-1-(2-phenyl-2-oxo)ethylpiperidine] | 94% | 34.5% |
| Fc1ccc(Cc2ccccc2C2=CCN(C/C=C/c3ccccc3)CC2)cc1 [Compound 34, (E)-4-[2-(4-fluorophenyl)methylphenyl]-1-(3-phenyl-2-propenyl)-1,2,3,6-tetrahydropyridine] | 34% | – |
| CC(C(=O)c1ccccc1)N1CCC(c2ccc(Oc3ccccc3)cc2)CC1 (stereo not shown) [Compound 69, 1-(1-benzoylethyl)-4-(4-phenoxyphenyl)piperidine] | 64.7% | 11.2% |
| ON=C(CN1CCC(c2ccc(Oc3ccccc3)cc2)CC1)c1ccccc1 [Compound 74, 4-(4-phenoxyphenyl)-1-(2-phenyl-2-hydroxyimino)ethylpiperidine] | 44.4% | 14.6% |
| O=C(CN1CCC(c2ccc(Oc3ccccc3)cc2)CC1)c1ccc(F)cc1 [Compound 67, 1-[2-(4-fluorophenyl)-2-oxo]ethyl-4-(4-phenoxyphenyl)piperidine] | 37% | 15% |
| O=C(CCCN1CCN(c2ccc(Cc3ccc(F)cc3)cc2)CC1)c1ccc(F)cc1 [Compound 58, 1-[4-(4-fluorophenyl)methylphenyl]-4-[4-((4-fluorophenyl)-4-oxo)butyl]-piperazine] | 66% | 33.9% |
| O=C(CN1CCC(c2ccc(Oc3ccccc3)cc2)CC1)c1ccc(Cl)cc1 [Compound 68, 1-[2-(4-chlorophenyl)-2-oxo]ethyl-4-(4-phenoxyphenyl]piperidine] | – | 38.9% |
| COc1ccc(Cc2ccc(C3CCN(CC(=O)c4ccccc4)CC3)cc2)cc1 [Compound 70, 4-[4-(4-methoxyphenyl)methylphenyl]-1-(2-phenyl-2-oxo)ethylpiperidine] | 73.9% | – |
| c1ccc(CCCN2CCC(c3ccc(Oc4ccccc4)cc3)CC2)cc1 [Compound 22, 4-(4-phenoxyphenyl)-1-(3-phenylpropyl)piperidine] | 85.7% | – |
| Fc1ccc(OCCN2CCC(c3ccc(Oc4ccccc4)cc3)CC2)cc1 [Compound 27, 1-[2-(4-fluorophenyl)oxyethyl]-4-(4-phenoxyphenyl)piperidine] | 34% | – |
| Fc1ccc(Cc2ccc(N3CCN(CCCCOc4ccc(F)cc4)CC3)cc2)cc1 [Compound 57, 4-[4-(4-fluorophenyl)-oxybutyl]-1-[4-(4-fluorophenyl)methylphenyl]pinerazine] | – | 25% |
| c1ccc(Cc2ccccc2N2CCN(CC3CC3c3ccccc3)CC2)cc1 (stereo not drawn) [Compound 52, (E)-1-(2-benzylphenyl)-4-[trans-(2-phenyl)cyclopropylmethyl]piperazine] | 20% | – |
| C(=C\c1ccccc1)/CN1CCN(c2ccccc2Cc2ccccc2)CC1 [Compound 51, (E)-1-(2-benzylphenyl)-4-(3-phenyl-2-propenyl)piperazine] | 71.4% | – |
| COc1cc(/C=C/CN2CC=C(c3ccc(Oc4ccccc4)cc3)CC2)ccc1O [Compound 24, (E)-1-[3-(4-hydroxy-3-methoxyphenyl)-2-propenyl]-4-(4-phenoxyphenyl)-1,2,3,6-tetrahydropyridine] | 49.1% | – |
